Data taken from patent publication US6872401B2, “Cosmetic/dermatological compositions comprising a tetrahydrocurcuminoid and an amide oil” (L'Oreal, priority 2002, dated 2005).

Experiment: Test of solubility: mixture of tetrahydrocurcuminoids in oils, microscopic examination
Type: physicochemical
Conditions: 1 g Tetrahydrocurcuminoids CG adjusted to 10 g with the oil, 15 minutes at 80° C., cooled 24 hours at room temperature
Experimental: Two amide oils in accordance with the invention are compared to 13 conventional oils used in cosmetics. Their solubilizing power is studied on a mixture of tetrahydrocurcuminoids of formula (I): i.e., the commercial product Tetrahydrocurcuminoids CG from Sabinsa as defined above.
1 g of a mixture of tetrahydrocurcuminoids is weighed and adjusted to 10 g with the oil studied. The mixture is heated for 15 minutes on a waterbath at 80° C. It is allowed to cool for 24 hours at room temperature and a microscopic examination is performed.

CCCCN(CCC(=O)OCC)C(C)=O [N-acetyl-N-butylaminopropionate]
SOLUBILITY AFTER 24 HOURS AT ROOM TEMPERATURE: completely dissolve the mixture of tetrahydrocurcuminoids
